Positions count from the first letter of the chain named.
Key:
rP2X7-F88A = molecular target: T1, rP2X7-F88A (Rattus norvegicus, UniProt Q64663, F88A); assay: TEVC inhibition dose-response, rP2X7-F88A mutant; type: cell-based; conditions: read-out: IC50 (inhibitory potency), F88A
T1 sequence (Q64663 1-595 F88A): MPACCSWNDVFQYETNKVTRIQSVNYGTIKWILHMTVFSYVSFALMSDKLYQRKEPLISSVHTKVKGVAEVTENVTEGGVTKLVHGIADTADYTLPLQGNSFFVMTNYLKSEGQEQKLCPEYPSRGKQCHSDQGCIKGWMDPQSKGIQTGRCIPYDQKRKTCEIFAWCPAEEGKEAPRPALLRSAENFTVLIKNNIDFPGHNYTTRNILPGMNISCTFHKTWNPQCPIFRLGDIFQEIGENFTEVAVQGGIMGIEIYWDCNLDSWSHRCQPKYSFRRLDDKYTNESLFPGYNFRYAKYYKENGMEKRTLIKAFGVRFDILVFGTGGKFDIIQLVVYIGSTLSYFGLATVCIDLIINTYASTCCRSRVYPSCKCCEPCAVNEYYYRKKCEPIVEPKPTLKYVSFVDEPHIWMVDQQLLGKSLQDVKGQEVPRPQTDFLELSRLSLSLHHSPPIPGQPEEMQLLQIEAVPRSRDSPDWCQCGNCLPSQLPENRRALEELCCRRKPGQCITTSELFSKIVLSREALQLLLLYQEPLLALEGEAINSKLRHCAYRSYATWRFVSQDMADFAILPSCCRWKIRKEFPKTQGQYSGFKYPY
Description: Structural determination of the full-length, wild-type rP2X7 was completed using a construct previously described containing no truncations or mutations ([16]). Furthermore, the rP2X7-WT construct used for electrophysiology experiments is unmodified full-length, wild-type rP2X7 with no green fluorescent protein (GFP), protease sites, or affinity tags present. The hP2X1-WT, hP2X2-WT, hP2X3-WT, hP2X4-WT, and hP2X7-WT constructs used for electrophysiology are similarly unmodified full-length, wild-type receptor constructs with no GFP, protease sites, or affinity tags present. Mutations to the rP2X7-WT construct used for electrophysiology experiments were made directly in the pcDNA3.1x plasmid. These constructs included the following: rP2X7-K297A, rP2X7-K297G, rP2X7-K297M, rP2X7-K297Q, rP2X7-K297V, rP2X7-Y298A, rP2X7-Y298G, rP2X7-Y298V, rP2X7-Y298L, rP2X7-R316A, rP2X7-R316G, rP2X7-R316Q, rP2X7-R316H, rP2X7-F88A, rP2X7-F103A, and rP2X7-Y295A.
(§1) To evaluate the inhibitory response of an antagonist for a dilution series, an initial excitatory signal was evoked at a subtype-specific concentration of ATP. Next, the antagonist was applied at a test concentration for 60 s and then coapplied at the same test concentration of the antagonist with the identical subtype-specific concentration of ATP. The antagonized signal was then normalized against the preceding excitatory signal evoked by ATP for each individual oocyte tested. The pre- and post-antagonist signals were evoked by 10 μM ATP for hP2X1, 10 μM ATP for hP2X2, 1 μM ATP for hP2X3, 50 μM ATP for hP2X4, and 100 μM ATP for P2X7. For the K297V mutation in rP2X7, pre- and post-antagonist signals were evoked by 300 μM ATP. Each dataset was then fit to a nonlinear regression named “[inhibitor] vs. response – Variable slope (four parameters)” in GraphPad Prism 9 to produce a sigmoidal curve and afford an IC50 value. Each singular condition was used to generate an average which is reported plus or minus its SD between three discrete trials.

rP2X7 = molecular target: T2, rP2X7 (Rattus norvegicus, UniProt Q64663); assay: TEVC recovery of current after complete inhibition (IC100), rP2X7; conditions: 120 s buffer wash, 100 μM ATP
T2 sequence (Q64663 1-595): T1 sequence (Q64663 1-595 F88A) with A88F
Description: Ecocyte Bioscience supplied defolliculated oocytes which were promptly resuspended in modified Barth’s solution containing the following: 88 mM NaCl, 1 mM KCl, 0.82 mM MgSO4, 0.33 mM Ca(NO3)2·4H2O, 0.41 mM CaCl2·2H2O, 2.4 mM NaHCO3, and 5 mM Hepes supplemented with amikacin 250 (mg/liter) and gentamycin (150 mg/liter). Xenopus laevis oocytes were then injected with either hP2X1 (50 nl of 100 ng/μl), hP2X2 (50 nl of 50 ng/μl), hP2X3 (50 nl of 400 ng/μl), hP2X4 (50 nl of 200 ng/μl), hP2X7 (50 nl of 10 ng/μl), or rP2X7 (50 nL of 20 ng/μl or 50 ng/μl) mRNA created from linearized full-length, wild-type or mutant pcDNA 3.1x according to the protocol provided in the mMESSAGE mMACHINE kit (Invitrogen). After injection, the oocytes were allowed to express protein for ~20 hours before recording was performed. Oocytes expressing hP2X4 were allowed to express protein for ~48 hours.
All TEVC data were acquired with an Ooctye Clamp OC-725C amplifier, pClamp 8.2 software, and a gravity-fed RSC-200 Rapid Solution Changer that flowed buffer at ~5 ml/min. For recording, Sutter filamented glass (10 cm in length with an inner diameter of 0.69 mm and an outer diameter of 1.2 mm) was used to impale oocytes and clamp the holding voltage at −60 mV. Recordings for hP2X1, hP2X2, hP2X7, and rP2X7 were performed in buffer with the following: 100 mM NaCl, 2.5 mM KCl, 0.1 mM EDTA, 0.1 mM flufenamic acid, and 5 mM Hepes at pH 7.4. Recordings for hP2X3 and hP2X4 were performed in buffer with the following: 10 mM Hepes (pH 7.4), 140 mM NaCl, 5 mM KCl, 2 mM CaCl2, 2 mM MgCl2, and 10 mM glucose. For TEVC experiments with P2X7, oocytes expressing hP2X7 or rP2X7 were facilitated with 100 μM ATP before recording the final data.
After testing an oocyte with a brief 100 μM ATP excitatory current, an antagonist is applied for 40, 120, or 240 s at IC100 calculated from IC50 values. The oocyte is then treated with 20 s of antagonist at the IC100 plus 100 μM ATP to see complete antagonism. This is followed by 120 s of washing with buffer, ending with a 20-s reapplication of 100 μM ATP. The signal after the reapplication of ATP was then compared to the initial excitatory current to afford a percentage of recovery of activation after complete antagonism. Experiments were run in triplicate. Trials were averaged and errors were reported as SD.

hP2X4 = molecular target: T3, hP2X4 (Homo sapiens, UniProt Q99571); assay: TEVC inhibition dose-response (IC50), hP2X4 in Xenopus laevis oocytes; type: cell-based; conditions: 50 μM ATP, mean ± SD, triplicate
T3 sequence (Q99571 1-388): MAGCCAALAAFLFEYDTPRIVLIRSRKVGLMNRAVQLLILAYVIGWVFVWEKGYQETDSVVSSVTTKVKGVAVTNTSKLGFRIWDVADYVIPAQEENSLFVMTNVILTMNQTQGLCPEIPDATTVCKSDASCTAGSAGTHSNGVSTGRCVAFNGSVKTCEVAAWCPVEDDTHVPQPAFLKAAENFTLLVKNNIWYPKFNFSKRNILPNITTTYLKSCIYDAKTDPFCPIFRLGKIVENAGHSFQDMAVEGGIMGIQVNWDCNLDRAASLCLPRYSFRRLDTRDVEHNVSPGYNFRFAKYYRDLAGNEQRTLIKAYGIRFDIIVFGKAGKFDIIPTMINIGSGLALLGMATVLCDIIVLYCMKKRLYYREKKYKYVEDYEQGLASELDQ
Description: as §1

SMILES | IC50 (rP2X7-F88A) [µM] | Recovery of activation (% of baseline current) (rP2X7; rP2X7, 40-s IC100 application) [%] | Recovery of activation (% of baseline current) (rP2X7; rP2X7, 120-s IC100 application) [%] | Recovery of activation (% of baseline current) (rP2X7; rP2X7, 240-s IC100 application) [%] | IC50 (hP2X4) [µM]
Clc1cccc(-c2nnnn2Cc2cccnc2)c1Cl [A438079] | 14 ± 1 | 81 ± 5 | 48 ± 15 | 50 ± 11 | 
Clc1cccc(-n2nnnc2NCc2ccccc2Oc2ccccn2)c1Cl [A839977] | 1.9 ± 0.2 | 67 ± 6 | 6.7 ± 2 | 1.4 ± 0.3 | 
O=C(NCC12CC3CC(CC(C3)C1)C2)c1cc(CCCNCCCO)ccc1Cl [AZD9056] | 0.13 ± 0.01 | 82 ± 5 | 47 ± 9 | 29 ± 15 | 
CN1C(=O)CC[C@H]1C(=O)NCc1cccc(C(F)(F)F)c1Cl [GSK1482160] | 13 ± 3 | 69 ± 4 | 45 ± 6 | 29 ± 9 | 
O=C(NCC1(N2CCN(c3ccccc3)CC2)CCOCC1)c1cccnc1Sc1ccccc1 [JNJ47965567] | 0.8 ± 0.1 | 1.4 ± 0.2 | 1.6 ± 1 | 2 ± 1 | 
O=S(=O)(O)c1ccc(N=C2C=CC(=C(c3ccc(Nc4ccc(S(=O)(=O)O)cc4)cc3)c3ccc(Nc4ccc(S(=O)(=O)O)cc4)cc3)C=C2)cc1 [methyl blue] | 5 ± 2 | 53 ± 4 | 15 ± 5 | 4 ± 1 | 51 ± 6
